# In ChEMBL document CHEMBL3124936, “Unusual fernane and gammacerane glycosides from the aerial parts of Spergula fallax” (J Nat Prod, 2014):
# Experiments:
# [1] = Growth inhibition of human DLD1 cells assessed as inhibition of cell viability after 72 hrs by MTT assay; type: functional, cell-based; details: DLD-1, 72 h
# HeLa = assay: Growth inhibition of human HeLa cells assessed as inhibition of cell viability after 72 hrs by MTT assay; type: functional, cell-based
IC50 (HeLa) [µM],Compound,IC50 [1] [µM]
52,CC(=O)O[C@H]1CO[C@@H](O[C@@H]2C[C@]3(C)[C@H](CC[C@@H]4[C@@]5(C)CC[C@H](O)C(C)(C)[C@@H]5[C@@H](O)C[C@]43C)[C@@]3(C)C[C@@H](O[C@@H]4O[C@H](CO)[C@@H](O)[C@H](O)[C@H]4O)[C@H](O)C(C)(C)[C@H]23)[C@H](O)[C@H]1O,52
16,COc1cc([C@@H]2c3cc4c(cc3[C@@H](O[C@@H]3O[C@@H]5CO[C@@H](C)O[C@H]5[C@H](O)[C@H]3O)[C@H]3COC(=O)[C@H]23)OCO4)cc(OC)c1O [ETOPOSIDE],20
